Assay [1] relates to spontaneously hypertensive rats (SHR). Briefly: Anti-hypertensive effect on mean arterial blood pressure of SHR. It counts as in vivo, rat. The protocol: In vivo studies on the effect of peptides of the present invention were performed on adult male spontaneously hypertensive rats, and normotensive Wistar rats (Rattus novergicus) weighing 250 to 350 g. Animals had free access to chow (Nuvilab) and water, and were submitted to a light-dark cycle of 12 hours each. Procedures involving animals and their care were conducted according to Giles [Giles A. R. Guidelines for the use of animals in biomedical research. Thromb. Haemost. 58: 1078-1084, 1987]. […]
The cardiovascular parameters (pulse arterial pressure (PAP), mean arterial pressure (MAP), and heart rate (HR)) were monitored by a solid-state strain gauge transducer connected to a computer through a data acquisition system (MP 100; BIOPAC Systems, Inc, Santa Barbara, Calif., USA). The PAP, MAP and HR were continuously presented in different monitor channels and recorded in the computer hard disk for late analysis.
Before drug administration, cardiovascular parameters of the rats were monitored for 40 minutes. […] Arterial blood pressure and heart frequency were continuously monitored for 360 minutes.
Results were expressed as the mean variation of MAP±standard deviation. […]

In assay [2] the test system is total kidney protein extract. Briefly: NO production in total kidney protein extract. Type of assay: biochemical, mouse. The conditions noted are these: kidney homogenate of mice; 0.01 to 50 μmol, preferentially 0.5 to 2 μmol peptide. On the procedure: The release of NO was evaluated by means of nitrate and nitrit accumulation in total kidney protein extract of male Swiss mice weighing 30-35 g, as described by Wu and Yen (Wu C C and Yen M H. Higher level of plasma nitric oxide in spontaneously hypertensive rats. Am. J. Hypertension 12: 476-482, 1999). Animals were subjected to perfusion with 0.9% saline solution containing heparin (1:1000). Kidneys were collected and homogenized in cold 50 mM Tris-HCl, 0.1 mM EDTA, 0.1 mM EGTA, 12 mM β-mercaptoethanol, and 1 mM phenylmethylsulphonyl fluoride, pH 7.4 buffer in a homogenizer (Polytron PT MR 3000, Kinematic AG, Littau). Homogenates were incubated with 10 nM, 1 μM, or 10 μM peptide SEQ ID NO 8 in a final volume of 500 μl for 1 hour. Trichloracetic acid (1%) was added at 4° C., and after 20 minutes the mixture was centrifuged at 13.000 g for 7 min at 4° C. A saturated solution of vanadium chloride (VCl3) in 1 M HCl at 90° C. was added to the supernatant, and the concentration of NO was determined by gas chemiluminescence by means of the reaction of NO with ozone in a NO analyzer (NOA^TM280; Sievers Inc.). The concentration of nitrate was determined using a standard curve of NaNO3 and the Bag software 2.2 (Sievers Instruments Inc.).

A further assay deals with C6 cells from rat glioma. The assay can be described thus: NO production in C6 glia cells. It counts as cell-based. The protocol: All reagents for cellular biology experiments were purchased from Invitrogen. C6 cells from rat glioma were cultured in DMEM, supplemented with 10% fetal bovine serum, streptomycin sulphate (100 μg/ml), and penicillin G (100 U/ml). Cultures were kept at 37° C. in 5% CO2 atmosphere. 24 hours before peptides were added, cells were transferred to a 24 well plate (1.5×10^5 cells/ml/well), containing DMEM medium lacking serum. Peptides were added to the cultures to a final concentration of 1 μM, and incubated for 24 hours at 37° C. in 5% CO2 atmosphere. The medium was collected and stored at −80° C.
NO concentration was determined in 1 ml of culture medium, which was incubated with N-ethylmaleimide at a final concentration of 10 mM, for 24 hours. The supernatant of a centrifugation at 1.000 rpm was injected in the NOA equipment (Nitric Oxide Analyser-Sievers) for NO quantification.

`CC(CS)C(=O)N1CCC[C@@H]1C(=O)O` (stereo partly drawn) [captopril, D-3-mercapto-2-methyl-1-oxopropyl-L-proline, reference compound]: the “molar dose needed for anti-hypertensive activity relative to the peptides” value in assay [1] (e.g. 10 μmoles/Kg, the dose that inhibits ACE in vivo) is listed as “approximately 1000 fold”.

Turning to <ENWPHPQIPP [SEQ ID NO 8], in assay [1] (effect is reduced at higher and at lower doses), the “dose of optimum anti-hypertensive activity” value is reported as ~71 nmoles/Kg of body weight. Besides, in assay [2], the “increase of nitrite production (generated from NO)” value is 5 fold. Also, the “rank of efficiency in activating nitrite production” value in the assay on C6 cells from rat glioma is listed as “the most efficient”.

The record behind these values is US20100035822A1, “PROLINE-RICH PEPTIDES, PHARMACEUTICAL COMPOSITION, USE OF ONE OR MORE PEPTIDES AND METHOD OF TREATMENT” (priority 2006, published 2010).
